Assay results as given in the NIST ThermoML archive (doi:10.1021/acs.jced.8b00979).

Assay: xn = mol fraction of the nth substance listed
Conditions: 100 kPa, Liquid; for viscosity: Capillary tube (Ostwald / Ubbelohde) method; for mass density: Vibrating tube method

CCCC(C)O (stereo not given) [pentan-2-ol] + CCCCCO
Conditions | mass density [kg/m3] | viscosity [mPa·s]
288.15 K, x2 = 0 | 813.34 | 5.057
288.15 K, x2 = 0.1 | 813.91 | 4.988
288.15 K, x2 = 0.2 | 814.5 | 4.929
288.15 K, x2 = 0.298 | 815.05 | 4.881
288.15 K, x2 = 0.4 | 815.6 | 4.842
288.15 K, x2 = 0.5 | 816.13 | 4.806
288.15 K, x2 = 0.601 | 816.66 | 4.772
288.15 K, x2 = 0.699 | 817.15 | 4.741
288.15 K, x2 = 0.798 | 817.63 | 4.714
288.15 K, x2 = 0.901 | 818.1 | 4.697
293.15 K, x2 = 0 | 809.38 | 4.174
293.15 K, x2 = 0.1 | 810 | 4.141
293.15 K, x2 = 0.2 | 810.63 | 4.114
293.15 K, x2 = 0.298 | 811.21 | 4.095
293.15 K, x2 = 0.4 | 811.79 | 4.079
293.15 K, x2 = 0.5 | 812.36 | 4.065
293.15 K, x2 = 0.601 | 812.92 | 4.054
293.15 K, x2 = 0.699 | 813.44 | 4.047
293.15 K, x2 = 0.798 | 813.95 | 4.045
293.15 K, x2 = 0.901 | 814.45 | 4.044
298.15 K, x2 = 0 | 805.35 | 3.398
298.15 K, x2 = 0.1 | 806.03 | 3.388
298.15 K, x2 = 0.2 | 806.7 | 3.382
298.15 K, x2 = 0.298 | 807.31 | 3.377
298.15 K, x2 = 0.4 | 807.93 | 3.373
298.15 K, x2 = 0.5 | 808.54 | 3.371
298.15 K, x2 = 0.601 | 809.14 | 3.377
298.15 K, x2 = 0.699 | 809.7 | 3.385
298.15 K, x2 = 0.798 | 810.24 | 3.402
298.15 K, x2 = 0.901 | 810.78 | 3.434
303.15 K, x2 = 0 | 801.24 | 2.82
303.15 K, x2 = 0.1 | 801.98 | 2.815
303.15 K, x2 = 0.2 | 802.7 | 2.815
303.15 K, x2 = 0.298 | 803.36 | 2.819
303.15 K, x2 = 0.4 | 804.02 | 2.833
303.15 K, x2 = 0.5 | 804.67 | 2.852
303.15 K, x2 = 0.601 | 805.32 | 2.875
303.15 K, x2 = 0.699 | 805.92 | 2.901
303.15 K, x2 = 0.798 | 806.5 | 2.932
303.15 K, x2 = 0.901 | 807.06 | 2.974
308.15 K, x2 = 0 | 797.05 | 2.336
308.15 K, x2 = 0.1 | 797.85 | 2.354
308.15 K, x2 = 0.2 | 798.63 | 2.373
308.15 K, x2 = 0.298 | 799.35 | 2.392
308.15 K, x2 = 0.4 | 800.06 | 2.416
308.15 K, x2 = 0.5 | 800.76 | 2.442
308.15 K, x2 = 0.601 | 801.45 | 2.472
308.15 K, x2 = 0.699 | 802.11 | 2.504
308.15 K, x2 = 0.798 | 802.74 | 2.54
308.15 K, x2 = 0.901 | 803.33 | 2.587
313.15 K, x2 = 0 | 792.78 | 1.99
313.15 K, x2 = 0.1 | 793.65 | 2.016
313.15 K, x2 = 0.2 | 794.49 | 2.039
313.15 K, x2 = 0.298 | 795.28 | 2.063
313.15 K, x2 = 0.4 | 796.05 | 2.09
313.15 K, x2 = 0.5 | 796.8 | 2.119
313.15 K, x2 = 0.601 | 797.54 | 2.152
313.15 K, x2 = 0.699 | 798.25 | 2.188
313.15 K, x2 = 0.798 | 798.92 | 2.226
313.15 K, x2 = 0.901 | 799.56 | 2.272
318.15 K, x2 = 0 | 788.42 | 1.706
318.15 K, x2 = 0.1 | 789.37 | 1.726
318.15 K, x2 = 0.2 | 790.29 | 1.751
318.15 K, x2 = 0.298 | 791.13 | 1.778
318.15 K, x2 = 0.4 | 791.96 | 1.809
318.15 K, x2 = 0.5 | 792.77 | 1.842
318.15 K, x2 = 0.601 | 793.58 | 1.878
318.15 K, x2 = 0.699 | 794.34 | 1.916
318.15 K, x2 = 0.798 | 795.06 | 1.956
318.15 K, x2 = 0.901 | 795.75 | 1.997
323.15 K, x2 = 0 | 783.99 | 1.472
323.15 K, x2 = 0.1 | 785.02 | 1.498
323.15 K, x2 = 0.2 | 786.01 | 1.522
323.15 K, x2 = 0.298 | 786.92 | 1.546
323.15 K, x2 = 0.4 | 787.82 | 1.575
323.15 K, x2 = 0.5 | 788.69 | 1.607
323.15 K, x2 = 0.601 | 789.56 | 1.642
323.15 K, x2 = 0.699 | 790.38 | 1.679
323.15 K, x2 = 0.798 | 791.17 | 1.718
323.15 K, x2 = 0.901 | 791.88 | 1.762
328.15 K, x2 = 0 | 779.46 | 1.306
328.15 K, x2 = 0.1 | 780.57 | 1.317
328.15 K, x2 = 0.2 | 781.64 | 1.335
328.15 K, x2 = 0.298 | 782.65 | 1.359
328.15 K, x2 = 0.4 | 783.63 | 1.387
328.15 K, x2 = 0.5 | 784.57 | 1.418
328.15 K, x2 = 0.601 | 785.5 | 1.45
328.15 K, x2 = 0.699 | 786.38 | 1.486
328.15 K, x2 = 0.798 | 787.22 | 1.524
328.15 K, x2 = 0.901 | 787.98 | 1.564
